Data taken from ChEMBL document CHEMBL1201862, “PubChem BioAssay data set” (2004).
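In this assay, cells in 96-well plates receive the compound at five concentrations for 48 hours. Endpoints are linearly interpolated between the surrounding concentrations. GI50 is the concentration that inhibits growth by half.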 Activity calls are given as the source filed them. Cut-off read from the data, not from the text of the source: active = GI50 up to about 1.1 µM and inactive = higher.

Legend:
Experiment in all cases: inhibition of tumour cell growth, NCI panel, 48 h
[1] = system: NCI-H226
[2] = system: ACHN
[3] = system: RXF 393
[4] = system: SF-268
[5] = system: NCI/ADR-RES
[6] = system: A549
[7] = system: KM12
[8] = system: SK-MEL-2
[9] = system: K562
[10] = system: HT-29
[11] = system: MOLT-4
[12] = system: DU-145
[13] = system: UACC-257
[14] = system: CCRF-CEM
[15] = system: OVCAR-5
[16] = system: SK-MEL-28
[17] = system: PC-3
[18] = system: A498
[19] = system: SF-539
[20] = system: HOP-92
[21] = system: MCF7
[22] = system: TK-10
[23] = system: SK-OV-3
[24] = system: MDA-MB-231
[25] = system: LOX IMVI
[26] = system: U-251
[27] = system: HCT-15
[28] = system: UO-31
[29] = system: MDA-MB-435
[30] = system: MDA-N
[31] = system: T47D
[32] = system: 786-0
[33] = system: NCI-H522
[34] = system: IGROV-1
[35] = system: HCT-116
[36] = system: COLO 205
[37] = system: SK-MEL-5
[38] = system: M14
[39] = system: SF-295
[40] = system: HCC 2998
[41] = system: SR
[42] = system: HL-60
[43] = system: NCI-H460
[44] = system: SN12C
[45] = system: Hs-578T
[46] = system: UACC-62
[47] = system: NCI-H23
[48] = system: EKVX
[49] = system: SNB-19
[50] = system: RPMI-8226
[51] = system: OVCAR-4
[52] = system: HOP-62
[53] = system: Malme-3M
[54] = system: OVCAR-8
[55] = system: BT-549
[56] = system: SW-620
[57] = system: SNB-75

Measured: GI50

COc1ccccc1Nc1nc(N)nc(N)c1N=O
inactive: [1] > 100 µM | [2] > 100 µM | [3] > 100 µM | [4] > 100 µM | [5] > 100 µM | [6] > 100 µM | [7] > 100 µM | [8] > 100 µM | [9] > 100 µM | [10] 78.2 µM | [11] > 100 µM | [12] > 100 µM | [13] > 100 µM | [14] > 100 µM | [15] > 100 µM | [16] > 100 µM | [17] > 100 µM | [18] > 100 µM | [19] > 100 µM | [20] > 100 µM | [21] > 100 µM | [22] > 100 µM | [23] > 100 µM | [24] > 100 µM | [25] > 100 µM | [26] > 100 µM | [28] > 100 µM | [29] > 100 µM | [30] > 100 µM | [31] 2.82 µM | [32] > 100 µM | [33] > 100 µM | [34] 3.91 µM | [35] > 100 µM | [36] > 100 µM | [37] > 100 µM | [38] 64 µM | [39] > 100 µM | [40] > 100 µM | [41] > 100 µM | [42] > 100 µM | [43] > 100 µM | [44] > 100 µM | [45] > 100 µM | [46] > 100 µM | [47] > 100 µM | [48] > 100 µM | [49] > 100 µM | [50] > 100 µM | [51] > 100 µM | [52] > 100 µM | [53] > 100 µM | [54] > 100 µM | [55] > 100 µM | [56] > 100 µM | [57] > 100 µM
> 100 µM: [27]
